The GI50 is the concentration that inhibits growth by half. In general, TGI refers to the concentration giving total growth inhibition. Read a low TGI as greater sensitivity of the cells.

“And” between values parts separate entries of the source, which are not always exact repeats. Equal entries are not always repeated.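 Test compounds were applied to cells in 96-well plates for 48 hours at 5 doses. Here, GI50 denotes the concentration required for 50% inhibition of growth. TGI: concentration producing complete growth inhibition.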

The test system of one test is SK-MEL-2 melanoma. Briefly: DTP human tumour cell line panel, 48 h.
Turning to `O=C1NC(=O)/C(=C\c2ccccc2)C2=C1CCCC2`, the GI50 is 7.72 µM and the TGI was determined as 22.9 µM.
In the case of `CN(CCO)c1ccc(N2Cc3ccccc3OC3=C2C(=O)c2c(O)ccc(O)c2C3=O)cn1`, the GI50 was 0.299 µM and the TGI worked out at 0.99 µM.
For `CC[C@H]1CN2CCc3cc(OC)c(OC)cc3[C@@H]2C[C@@H]1C[C@H]1NCCc2c1[nH]c1ccc(O)cc21`, the GI50 is 0.0228 µM; the TGI is 0.052 µM and 0.0353 µM.
In the case of `CCCCCOc1ccc(/C=N/Nc2cc(C)nc3ccc(Br)cc23)cc1`, the GI50 is 1.98 µM and the TGI came to 3.91 µM.
Regarding `CC(=O)Oc1ccccc1C(=O)Nc1ncc([N+](=O)[O-])s1`, the GI50 is 2.05 µM.
For `CCN(Cc1ccccc1C)c1ccc(CO)c(Cl)c1`, the GI50 is 4.47 µM and the TGI was 18.1 µM.
As for `O=C(O)CC(NC(=O)CP(=O)(O)O)C(=O)O` (stereo not given), the TGI was over 10000 µM.
Turning to `Cn1cc(C2=C(c3cccc(Br)c3)C(=O)NC2=O)c2ccccc21`, the GI50 was 11.6 µM and the TGI is over 21.6 µM.
For the compound `COc1ccc(-c2ccc(-c3ccc(C(=N)N)s3)s2)cc1`, the GI50 is 2.22 µM and the total growth inhibition concentration (TGI) was determined as 4.14 µM.
Compound `COC(=O)/C=C/c1c(CC=C(C)C)ncn1C` came in with a TGI of over 100 µM.
`OCc1ccn2c1[C@@H](O)CC2` gave a TGI of over 100 µM.
On the same count and under the same terms, the result for `Cc1[nH]c(/C=C2\C(=O)Nc3ccccc32)c(C)c1CCC(=O)O` reads 38.5 µM and 38.8 µM.
`c1ccc2c(c1)c1c(c3ccccc32)CN2CCCC2C1` (stereo not given) yielded a TGI of 9.1 µM.
The same measure, in the same setting: the value for `O=S(=O)(c1ccccc1)C1CN2OC1(S(=O)(=O)c1ccccc1)CC2c1ccc(Br)cc1` (stereo not given) was over 100 µM.
Take `O=C(c1ccc(/C=C/c2n[nH]c3ccccc23)cc1)N1CCNCC1`: the GI50 was 4.53 µM and 6.85 µM; the TGI is > 10 µM and 20.5 µM.
As for `CCOC(=O)c1c(NC(=O)c2cccc(C(F)(F)F)c2)sc2c(CN(C)C)c(O)ccc12`, the GI50 was 2.57 µM and the TGI was found to be 6.92 µM.
As to `O=C(Nc1ccc(-n2ccc3c(NC(=O)c4ccccc4)nccc32)cc1)Nc1ccc(Cl)c(Cl)c1`, the GI50 is 1.98 µM and the concentration for total growth inhibition (TGI) was found to be 4.87 µM.

For the next test, the system named is MALME-3M melanoma. Nature of the test: DTP human tumour cell line panel, 48 h.
With `O=C1NC(=O)/C(=C\c2ccccc2)C2=C1CCCC2`, the GI50 was 2.53 µM and the TGI amounted to 9.11 µM.
As for `CN(CCO)c1ccc(N2Cc3ccccc3OC3=C2C(=O)c2c(O)ccc(O)c2C3=O)cn1`, the GI50 is 0.0833 µM and the TGI amounted to 0.245 µM.
Take `CC[C@H]1CN2CCc3cc(OC)c(OC)cc3[C@@H]2C[C@@H]1C[C@H]1NCCc2c1[nH]c1ccc(O)cc21`: the GI50 was 0.047 µM and 0.336 µM; the TGI is 0.113 µM and 0.744 µM and 0.184 µM.
Turning to `CCCCCOc1ccc(/C=N/Nc2cc(C)nc3ccc(Br)cc23)cc1`, the GI50 was 1.88 µM and the TGI came out at 3.46 µM.
With `CC(=O)Oc1ccccc1C(=O)Nc1ncc([N+](=O)[O-])s1`, the GI50 is 1.48 µM.
Take `CCN(Cc1ccccc1C)c1ccc(CO)c(Cl)c1`: the GI50 was 15.6 µM and the TGI was determined as 32 µM.
`O=C(O)CC(NC(=O)CP(=O)(O)O)C(=O)O` (stereo not given) came in with a TGI of over 8470 µM.
For `Cn1cc(C2=C(c3cccc(Br)c3)C(=O)NC2=O)c2ccccc21`, the GI50 was over 19.2 µM and the TGI was over 25 µM.
The matching figures for `COc1ccc(-c2ccc(-c3ccc(C(=N)N)s3)s2)cc1`: 0.564 µM and 1.39 µM.
`COC(=O)/C=C/c1c(CC=C(C)C)ncn1C`: the TGI was over 100 µM.
Same read-out and setting: the value for `OCc1ccn2c1[C@@H](O)CC2` was over 100 µM.
On to `Cc1[nH]c(/C=C2\C(=O)Nc3ccccc32)c(C)c1CCC(=O)O`, for which the GI50 is 10.7 µM; the TGI is 36.8 µM and 75.6 µM.
In the case of `c1ccc2c(c1)c1c(c3ccccc32)CN2CCCC2C1` (stereo not given), the TGI turned out to be 7.14 µM.
The same measure, in the same setting: the result for `O=S(=O)(c1ccccc1)C1CN2OC1(S(=O)(=O)c1ccccc1)CC2c1ccc(Br)cc1` (stereo not given) reads over 100 µM.
Turning to `O=C(c1ccc(/C=C/c2n[nH]c3ccccc23)cc1)N1CCNCC1`, the GI50 was 1.52 µM and 1.16 µM; the TGI is 3.09 µM and 9.38 µM.
Consider `CCOC(=O)c1c(NC(=O)c2cccc(C(F)(F)F)c2)sc2c(CN(C)C)c(O)ccc12`, for which the GI50 was 1.71 µM and the TGI was found to be 3.22 µM.
For `O=C(Nc1ccc(-n2ccc3c(NC(=O)c4ccccc4)nccc32)cc1)Nc1ccc(Cl)c(Cl)c1`, in that order: 1.7 µM and 3.78 µM.

The next test concerns SNB-75 CNS. Briefly: DTP human tumour cell line panel, 48 h.
In the case of `O=C1NC(=O)/C(=C\c2ccccc2)C2=C1CCCC2`, the GI50 is 11.9 µM and the TGI was 24.7 µM.
For `CN(CCO)c1ccc(N2Cc3ccccc3OC3=C2C(=O)c2c(O)ccc(O)c2C3=O)cn1`, in that order: 0.348 µM and 1.8 µM.
On to `CC[C@H]1CN2CCc3cc(OC)c(OC)cc3[C@@H]2C[C@@H]1C[C@H]1NCCc2c1[nH]c1ccc(O)cc21`, for which the GI50 is 0.032 µM and 0.0223 µM; the TGI is 0.111 µM and 0.0732 µM and 0.0544 µM.
As for `CCCCCOc1ccc(/C=N/Nc2cc(C)nc3ccc(Br)cc23)cc1`, the GI50 was 1.77 µM and the TGI is 3.39 µM.
Take `CC(=O)Oc1ccccc1C(=O)Nc1ncc([N+](=O)[O-])s1`: the GI50 was 1.6 µM; the TGI is 7.13 µM and > 67.9 µM.
With `CCN(Cc1ccccc1C)c1ccc(CO)c(Cl)c1`, the GI50 is 9.62 µM and the TGI came out at 25 µM.
As to `O=C(O)CC(NC(=O)CP(=O)(O)O)C(=O)O` (stereo not given), the TGI is over 10000 µM.
In the case of `Cn1cc(C2=C(c3cccc(Br)c3)C(=O)NC2=O)c2ccccc21`, the GI50 was 1.18 µM and the TGI was over 25 µM.

The record behind these values is PubChem BioAssay (NCI).
